Patent US10570096B2, “Diamino pyridine derivatives” (NOVARTIS AG, priority 2015, dated 2020)

What was measured:
Type in all cases: biochemical
[1] = target: T1, JAK2 (Homo sapiens, UniProt O60674); experiment: Enzymatic JAK assay (Caliper mobility shift), JAK2; conditions: GST-JAK2 (808-1132) kinase domain, 1.8 nM enzyme, 20 μM ATP (KmATP), 30° C., 60 minutes
T1 construct: GST-JAK2 (808-1132); host or cells: insect cells
Description: (§1) Enzymatic JAK assays. For enzyme assays affinity-purified GST-fusions of the active kinase domains (GST-JAK1 (866-1154), GST-JAK2 (808-1132), GST-JAK3 (811-1124), and GST-TYK2(888-1187) were expressed in insect cells or purchased from Invitrogen (Carlsbad, USA). All assays were performed in 384-well microtiter plates with 8-point serial dilutions of compounds. The kinase reactions were started by stepwise addition of 4.5 μl per well of a 2× peptide/ATP-solution and 4.5 μl per well of a 2× enzyme solution. The final ATP concentration used in the assays corresponds to the individually determined KmATP for the respective enzyme. Assay buffer: 50 mM HEPES, pH 7.5, 1 mM DTT, 0.02% Tween20, 0.02% BSA, 0.6% DMSO, 10 mM beta-glycerophosphate, and 10 μM sodium orthovanadate. Other components were adjusted specifically for the respective kinase assays: JAK1: 16 nM enzyme, 70 μM ATP, 2 μM peptide substrate, 12 mM MgCl2. JAK2: 1.8 nM enzyme, 20 μM ATP, 2 μM peptide substrate, 9 mM MgCl2. JAK3: 13 nM enzyme, 18 μM ATP, 2 μM peptide substrate, 1.5 mM MgCl2. Tyk2: 3.5 nM enzyme, 35 μM ATP, 2 μM peptide substrate, 9 mM MgCl2. […] Phosphorylated and unphosphorylated peptides were separated using the Caliper microfluidic mobility shift technology on a Caliper LC3000 workstation and kinase activities were calculated from the amounts of formed phospho-peptide.

[2] = target: T2, JAK1 (Homo sapiens, UniProt P23458); experiment: Enzymatic JAK assay (Caliper mobility shift), JAK1; conditions: GST-JAK1 (866-1154) kinase domain, 16 nM enzyme, 70 μM ATP (KmATP), 30° C., 60 minutes
T2 construct: GST-fusions of the active kinase domains (GST-JAK1 (866-1154)); host or cells: insect cells
T2 sequence (P23458 866-1154): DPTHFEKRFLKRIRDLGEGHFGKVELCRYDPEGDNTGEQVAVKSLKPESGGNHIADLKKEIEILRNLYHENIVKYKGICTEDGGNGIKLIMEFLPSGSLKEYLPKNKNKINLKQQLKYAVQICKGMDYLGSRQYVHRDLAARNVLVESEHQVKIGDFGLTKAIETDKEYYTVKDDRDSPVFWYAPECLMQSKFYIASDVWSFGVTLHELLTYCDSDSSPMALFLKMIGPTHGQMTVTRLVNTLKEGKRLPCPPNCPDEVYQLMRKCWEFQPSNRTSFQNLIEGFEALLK
Description: as §1

[3] = target: T3, JAK3 (Homo sapiens, UniProt P52333); experiment: Enzymatic JAK assay (Caliper mobility shift), JAK3; conditions: GST-JAK3 (811-1124) kinase domain, 13 nM enzyme, 18 μM ATP (KmATP), 30° C., 60 minutes
T3 construct: GST-JAK3 (811-1124); host or cells: insect cells
T3 sequence (P52333 811-1124): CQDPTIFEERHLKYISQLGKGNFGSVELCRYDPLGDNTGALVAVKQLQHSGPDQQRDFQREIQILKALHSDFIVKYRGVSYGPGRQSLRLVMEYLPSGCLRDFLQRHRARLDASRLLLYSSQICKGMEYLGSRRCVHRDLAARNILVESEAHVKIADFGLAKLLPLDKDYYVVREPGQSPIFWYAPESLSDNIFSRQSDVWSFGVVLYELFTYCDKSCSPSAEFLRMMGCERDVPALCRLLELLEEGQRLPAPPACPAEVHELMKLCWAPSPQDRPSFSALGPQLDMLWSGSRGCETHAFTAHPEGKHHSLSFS
Description: as §1

[4] = target: T4, Tyk2 (Homo sapiens, UniProt P29597); experiment: Enzymatic JAK assay (Caliper mobility shift), Tyk2; conditions: GST-TYK2(888-1187) kinase domain, 3.5 nM enzyme, 35 μM ATP (KmATP), 30° C., 60 minutes
T4 construct: GST-TYK2(888-1187); host or cells: insect cells
T4 sequence (P29597 888-1187): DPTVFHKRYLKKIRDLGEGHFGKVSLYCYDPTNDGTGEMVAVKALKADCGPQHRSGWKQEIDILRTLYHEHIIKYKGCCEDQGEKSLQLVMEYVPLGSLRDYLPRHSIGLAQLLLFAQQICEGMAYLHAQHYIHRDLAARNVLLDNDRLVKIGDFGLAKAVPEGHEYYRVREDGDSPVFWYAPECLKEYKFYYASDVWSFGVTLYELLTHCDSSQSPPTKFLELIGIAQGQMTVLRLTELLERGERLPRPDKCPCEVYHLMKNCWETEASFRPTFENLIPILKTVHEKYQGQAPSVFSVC
Description: as §1

T1 sequence (O60674 808-1132): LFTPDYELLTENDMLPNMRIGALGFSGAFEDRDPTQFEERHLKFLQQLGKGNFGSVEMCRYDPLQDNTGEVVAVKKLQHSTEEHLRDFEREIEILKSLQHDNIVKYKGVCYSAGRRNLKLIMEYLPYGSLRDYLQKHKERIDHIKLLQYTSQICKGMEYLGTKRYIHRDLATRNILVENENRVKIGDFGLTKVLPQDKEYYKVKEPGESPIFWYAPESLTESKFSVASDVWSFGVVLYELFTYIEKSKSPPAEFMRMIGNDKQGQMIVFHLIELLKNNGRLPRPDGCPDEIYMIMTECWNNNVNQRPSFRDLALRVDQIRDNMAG

Compound | IC50 [1] | IC50 [2] | IC50 [3] | IC50 [4]
Cc1cccc(Nc2cc(Nc3ccccc3Cl)c(C(N)=O)cn2)n1 [Example 2, 4-((2-chlorophenyl)amino)-6-((6-methylpyridin-2-yl)amino)nicotinamide] | 25 nM | 12 nM | 15 nM | 24 nM
NC(=O)c1cnc(Nc2ccccn2)cc1Nc1ccccc1Cl [Example 1, 4-((2-chlorophenyl)amino)-6-(pyridin-2-ylamino)nicotinamide] | 14 nM | 18 nM | 9 nM | 14 nM
